Experimental data from ChEMBL document CHEMBL1201862, “PubChem BioAssay data set” (2004).
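96-well plates; 48 h exposure; 5 concentrations. Endpoints by linear interpolation between flanking doses. Not reached: highest tested concentration assigned. Here, GI50 denotes the concentration required for 50% inhibition of growth.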 The source made the active and inactive calls. No stated cut-off is given here; in the data, active = GI50 up to about 1.1 µM and inactive = higher.

Key:
Test in all cases: NCI anticancer screen, dose series, 48 h
[1] = tested on: SR
[2] = tested on: CCRF-CEM
[3] = tested on: HCC 2998
[4] = tested on: PC-3
[5] = tested on: NCI-H23
[6] = tested on: SK-MEL-5
[7] = tested on: EKVX
[8] = tested on: HCT-15
[9] = tested on: SN12C
[10] = tested on: SK-MEL-2
[11] = tested on: HOP-62
[12] = tested on: DU-145
[13] = tested on: HCT-116
[14] = tested on: U-251
[15] = tested on: TK-10
[16] = tested on: A549
[17] = tested on: COLO 205
[18] = tested on: SF-539
[19] = tested on: LOX IMVI
[20] = tested on: 786-0
[21] = tested on: NCI-H522
[22] = tested on: T47D
[23] = tested on: A498
[24] = tested on: CAKI-1
[25] = tested on: HT-29
[26] = tested on: MCF7
[27] = tested on: UACC-62
[28] = tested on: MDA-N
[29] = tested on: OVCAR-3
[30] = tested on: Hs-578T
[31] = tested on: UACC-257
[32] = tested on: SNB-19
[33] = tested on: OVCAR-8
[34] = tested on: SK-OV-3
[35] = tested on: RPMI-8226
[36] = tested on: HL-60
[37] = tested on: K562
[38] = tested on: Malme-3M
[39] = tested on: SF-295
[40] = tested on: SNB-75
[41] = tested on: MDA-MB-435
[42] = tested on: M14
[43] = tested on: ACHN
[44] = tested on: IGROV-1
[45] = tested on: OVCAR-5
[46] = tested on: BT-549
[47] = tested on: MDA-MB-231
[48] = tested on: NCI-H460
[49] = tested on: SK-MEL-28
[50] = tested on: MOLT-4
[51] = tested on: OVCAR-4
[52] = tested on: KM12
[53] = tested on: SW-620
[54] = tested on: SF-268
[55] = tested on: UO-31
[56] = tested on: HOP-92
[57] = tested on: RXF 393
[58] = tested on: NCI/ADR-RES
[59] = tested on: NCI-H226

Measured: GI50

Cc1c(-c2ccc(O)cc2)n(CCCCCCNCCOC(=O)NCCCc2ccc(N(CCCl)CCCl)cc2)c2ccc(O)cc12
1.79 µM: [8]
inactive: [2] 1.67 µM | [3] 1.86 µM | [4] 2.47 µM | [5] 1.78 µM | [6] 1.96 µM | [7] 3.05 µM | [9] 2.4 µM | [10] 10.6 µM | [11] 2.54 µM | [12] 1.83 µM | [13] 1.52 µM | [14] 3.07 µM | [15] 2.24 µM | [16] 1.88 µM | [17] 2.64 µM | [18] 1.64 µM | [19] 1.5 µM | [20] 1.59 µM | [21] 1.69 µM | [23] 14.9 µM | [24] 11.1 µM | [25] 1.59 µM | [27] 1.79 µM | [28] 1.73 µM | [29] 2.16 µM | [30] 1.98 µM | [31] 1.89 µM | [32] 13.2 µM | [33] 1.38 µM | [34] 10.2 µM | [35] 1.31 µM | [36] 1.44 µM | [37] 2.67 µM | [38] 1.6 µM | [39] 2.21 µM | [40] 1.98 µM | [41] 1.69 µM | [42] 1.59 µM | [43] 3.71 µM | [44] 2.07 µM | [45] 15.1 µM | [46] 12.4 µM | [47] 1.83 µM | [48] 1.52 µM | [49] 4.21 µM | [50] 1.17 µM | [51] 1.9 µM | [52] 2.25 µM | [53] 2.15 µM | [54] 1.52 µM
active: [1] 0.809 µM | [22] 0.0552 µM | [26] 0.766 µM

CC(=O)O[C@H]1C[C@]2(O)[C@@H]3CC[C@@H]4C[C@@H](O)CC[C@]4(C)[C@H]3CC[C@]2(C)[C@H]1C1=CC(=O)OC1
0.0843 µM: [8]
active: [1] 0.0315 µM | [2] 0.0375 µM | [3] 0.161 µM | [4] 0.0662 µM | [5] 0.0366 µM | [55] 0.0632 µM | [6] 0.0318 µM | [7] 0.0458 µM | [9] 0.037 µM | [10] 0.218 µM | [11] 0.0493 µM | [12] 0.0316 µM | [13] 0.033 µM | [14] 0.128 µM | [15] 0.0796 µM | [16] < 0.0144 µM | [17] 0.236 µM | [18] 0.0299 µM | [19] 0.0585 µM | [20] 0.0455 µM | [21] 0.0251 µM | [22] 0.222 µM | [23] 0.0977 µM | [24] 0.034 µM | [25] 0.0986 µM | [27] 0.211 µM | [28] 0.0867 µM | [29] 0.0389 µM | [30] 0.0675 µM | [31] 0.18 µM | [32] 0.381 µM | [33] 0.0923 µM | [56] 0.192 µM | [34] 0.214 µM | [35] 0.0982 µM | [36] 0.0382 µM | [37] 0.103 µM | [38] 0.036 µM | [39] 0.0391 µM | [40] 0.153 µM | [41] 0.179 µM | [42] 0.172 µM | [43] 0.031 µM | [44] 0.103 µM | [45] 0.182 µM | [46] 0.0284 µM | [47] 0.404 µM | [48] 0.0289 µM | [57] 0.0324 µM | [49] 0.324 µM | [50] 0.0201 µM | [58] 0.074 µM | [51] 0.0362 µM | [52] 0.398 µM | [53] 0.125 µM | [54] 0.0429 µM | [59] 0.288 µM
